Test results published in patent US20260215418A1, “HYDROCARBON ALCOHOLS AND THEIR DERIVATIVES AS SYNERGISTS IN PESTICIDE ACTIVITY” (priority 2022, published 2026).

Key:
Format in all cases: in vivo
[1] = test system: Musca domestica L.; test: Contact test on non-porous tile, Musca domestica
Protocol: 1 ml of Composition 1 was applied to the tile. […] 1 ml of Composition 8a was distributed on the tile. […] 1 ml of Composition 8a was distributed on a tile. […] At the end of the 30 minutes, the flies were transferred to an untreated area.
1 ml of Composition 3 was applied to the tile. […] 1 ml of Composition 8c was distributed on the tile. […] 1 ml of Composition 8c was distributed on a tile. […] At the end of the 30 minutes, the flies were transferred to an untreated area.
1 ml of Composition 9a was distributed on the tile. […] 1 ml of Composition 9a was distributed on a tile. […] At the end of the 30 minutes, the flies were transferred to an untreated area. […] 1 ml of Composition 10a was distributed on the tile. […] 1 ml of Composition 10a was distributed on a tile. […] At the end of the 30 minutes, the flies were transferred to an untreated area. […] 1 ml of Composition 8c was distributed on the tile. […] 1 ml of Composition 8c was distributed on a tile. […] At the end of the 30 minutes, the flies were transferred to an untreated area.
1 ml of Composition 5a, was distributed on the tile. […] 1 ml of Composition 6a was distributed on the tile. […] 1 ml of Composition 7a was distributed on the tile.
1 ml of Composition 3 was distributed on the tile. […] 1 ml of Composition 9a was distributed on the tile. […] 1 ml of Composition 11a was distributed on a tile. […] 1 ml of Composition 12a was distributed on a tile.
1 ml of Composition 3 was distributed on the tile. […] 1 ml of Composition 17a was distributed on a tile. […] 1 ml of Composition 18a was distributed on a tile. […] Each experiment (A-C) was conducted in duplicate.
1 ml of Composition 23a was distributed on the tile. […] 1 ml of Composition 20a was distributed on a tile. […] Each experiment (A-B) was conducted in duplicate.
1 ml of Composition 3 was distributed on the tile. […] 1 ml of Composition 25a was distributed on a tile. […] Each experiment (A-B) was conducted in duplicate.
1 ml of Composition 23a was distributed on the tile. […] 1 ml of Composition 27a was distributed on a tile. […] Each experiment (A-B) was conducted in duplicate.
1 ml of Composition 26a was distributed on a tile. […] 1 ml of Composition 26b was distributed on a tile. […] 1 ml of Composition 26c was distributed on a tile.
1 ml of Composition 22a was distributed on a tile. […] 1 ml of Composition 22b was distributed on a tile. […] 1 ml of Composition 22c was distributed on a tile.
1 ml of Composition 23a was distributed on the tile. […] 1 ml of Composition 44a was distributed on a tile.
1 ml of Composition 33 was distributed on a tile. […] 1 ml of Composition 33 was distributed on a tile. […] At the end of the 30 minutes, the flies were transferred to an untreated area.
1 ml of Composition 1 was distributed on the tile. […] 1 ml of Composition 34 was distributed on a tile. […] 1 ml of Composition 34 was distributed on a tile. […] At the end of the 30 minutes, the flies were transferred to an untreated area.
1 ml of Composition 3 was distributed on the tile. […] 1 ml of Composition 31a was distributed on a tile. […] 1 ml of Composition 31b was distributed on a tile. […] 1 ml of Composition 31b was distributed on a tile. […] At the end of the 30 minutes, the flies were transferred to an untreated area. […] 1 ml of Composition 38a was distributed on a tile. […] 1 ml of Composition 38a was distributed on a tile. […] At the end of the 30 minutes, the flies were transferred to an untreated area.
G) According to the invention. 1 ml of Composition 40a was distributed on a tile. […] Subsequently, after waiting for the solvent to evaporate, 10 flies were placed on top of the treated til

[2] = test system: Blatta lateralis; test: Contact test on non-porous tile, Blatta lateralis; conditions: Blatta lateralis
Protocol: 1 ml of Composition 24 was distributed on the tile. […] 1 ml of Composition 20c was distributed on a tile. […] 1 ml of Composition 20d was distributed on a tile.
1 ml of Composition 24 was distributed on the tile. […] 1 ml of Composition 28 was distributed on a tile. […] Each experiment (A-B) was conducted in duplicate.
1 ml of Composition 24 was distributed on the tile. […] 1 ml of Composition 21 was distributed on a tile.
1 ml of Composition 4b was distributed on the tile. […] 1 ml of Composition 31c was distributed on a tile. […] 1 ml of Composition 31d was distributed on a tile. […] 1 ml of Composition 31d was distributed on a tile.
1 ml of Composition 24 was distributed on the tile. […] 1 ml of Composition 35 was distributed on a tile. […] 1 ml of Composition 40b was distributed on a tile. […] 1 ml of Composition 42 was distributed on a tile.

[3] = test system: Blattella germanica; test: Contact test on non-porous tile, Blattella germanica; conditions: 24 h; for Mortality %/time (h) (application): Table 37, Blattella germanica, concentrations in mg/ml in label
Protocol: 1 ml of Composition 36 was distributed on the tile. […] 1 ml of Composition 37 was distributed on a tile.

| Molecule | synergizing effect on Azamethiphos ([1]; Musca domestica L., synergist applied with Azamethiphos) | synergizing effect on Cypermethrin ([1]; Musca domestica L., synergist applied with Cypermethrin) | synergizing effect on Pyrethrins ([1]; Musca domestica L., synergist applied with Pyrethrins) | synergizing effect on Spinosad ([1]; Musca domestica L., synergist applied with Spinosad) | mortality at 390 µg/mL ([1]; Musca domestica, single substance alone, 0.39 mg/ml, 48 h, read-out: Mortality %/time (h)) [%] | mortality at 680 µg/mL ([1]; Musca domestica, single substance alone, 0.68 mg/ml, 48 h, read-out: Mortality %/time (h)) [%] | mortality at 1050 µg/mL ([1]; Musca domestica, single substance alone, 1.05 mg/ml, 48 h, read-out: Mortality %/time (h)) [%] | mortality at 2340 µg/mL ([1]; Musca domestica, single substance alone, 2.34 mg/ml, 48 h, read-out: Mortality %/time (h)) [%] | synergizing effect on Cypermethrin ([2]; synergist applied with Cypermethrin) | synergizing effect on Imidacloprid ([2]; synergist applied with Imidacloprid) | Mortality % ([3]; Example 34, 25° C, insects on treated tile) [%] | Mortality %/time (h) (application) [3] |
| --- | --- | --- | --- | --- | --- | --- | --- | --- | --- | --- | --- | --- |
| CCCCC(O)CO (stereo not shown) [1,2-hexandiol] | excellent synergizing effect | excellent synergizing effect | good synergizing effect | good synergizing effect | 4 | 7 | 10 | 23 | good synergizing effect | excellent synergizing effect |  |  |
| O=[N+]([O-])NC1=NCCN1Cc1ccc(Cl)nc1 [Composition 36, Imidacloprid, reference compound] |  |  |  |  |  |  |  |  |  |  | 27 | 27/24 ^ % |
| Oleic alcohol [Composition 37] |  |  |  |  |  |  |  |  |  |  |  | 7/24 ^ % |
